In ChEMBL document CHEMBL5506053, “Explorations of Agonist Selectivity for the α9* nAChR with Novel Substituted Carbamoyl/Amido/Heteroaryl Dialkylpiperazinium Salts and Their Therapeutic Implications in Pain and Inflammation” (J Med Chem, 2024):
pEC50, pIC50: −log10 of the molar value. Activity calls are given as the source filed them. The calls are words filed in the database; no cut-off is given here.

Columns and labels:
[1] = target: T1, Neuronal acetylcholine receptor; alpha3/beta4 (Homo sapiens) (UniProt P30926+P32297); assay: Agonist activity at human alpha3beta4 nAChR expressed in xenopus laevis oocytes at 100 uM measured after 120 secs by two-electrode voltage-clamp electrophysiology method relative to control; format: cell-based; conditions: Oocyte, time 120.0 sec
[2] = target: T2, Neuronal acetylcholine receptor subunit alpha-7 (Homo sapiens, UniProt P36544); assay: Agonist activity at human alpha7 nAChR expressed as xenopus laevis oocytes assessed as increase in receptor desensitization by measuring fold change in peak current response at 30 uM incubated for 120 secs presence of PNU-120596 by two-electrode voltage-clamp electrophysiology method relative to acetylcholine; format: cell-based; conditions: Oocyte, filed as agonist, time 120.0 sec
[3] = target: T3, Neuronal acetylcholine receptor; alpha4/beta2 (Homo sapiens) (UniProt P17787+P43681); assay: Agonist activity at human alpha4beta2 nAChR expressed in xenopus laevis oocytes at 30 uM measured after 120 secs by two-electrode voltage-clamp electrophysiology method relative to control; format: cell-based; conditions: Oocyte, time 120.0 sec
[4] = target: T2, Neuronal acetylcholine receptor subunit alpha-7; assay: Agonist activity at human alpha7 nAChR expressed as xenopus laevis oocytes assessed as increase in receptor desensitization by measuring fold change in maximum response (Imax) measured after 120 secs by two-electrode voltage-clamp electrophysiology method relative to acetylcholine; format: cell-based; conditions: Oocyte, filed as agonist, time 120.0 sec
[5] = target: T2, Neuronal acetylcholine receptor subunit alpha-7; assay: Ratio for agonist activity at human alpha7 nAChR expressed as xenopus laevis oocytes assessed as increase in receptor desensitization by measuring fold change in peak current response to agonist activity at human alpha7 nAChR expressed as xenopus laevis oocytes assessed as increase in receptor desensitization by measuring fold change in peak current response in presence of PNU-120596; format: cell-based; conditions: Oocyte
Oocyte [6] = assay: (§1) Inhibition of acetylcholine induced response in mouse muscle alpha1beta1epsilondelta nAChR expressed in xenopus laevis oocytes assessed as fold change at 30 uM preincubated with 3 uM acetylcholine followed by compound administration for 12 sec and measured 181 sec post washout by two-electrode voltage-clamp electrophysiology method relative to acetylcholine alone; format: cell-based
[7] = target: T3, Neuronal acetylcholine receptor; alpha4/beta2 (Homo sapiens); assay: as §1, with “human alpha4beta2” for “mouse muscle alpha1beta1epsilondelta”; format: cell-based; conditions: Oocyte
[8] = target: T4, Neuronal acetylcholine receptor; alpha9/alpha10 (Homo sapiens) (UniProt Q9UGM1+Q9GZZ6); assay: Partial agonist activity at human alpha9alpha10 nAChR expressed as xenopus laevis oocytes assessed as increase in receptor desensitization by measuring fold change in maximum response (Imax) measured after 120 secs by two-electrode voltage-clamp electrophysiology method relative to acetylcholine; format: cell-based; conditions: Oocyte, filed as partial agonist, time 120.0 sec
[9] = target: T5, Neuronal acetylcholine receptor subunit alpha-9 (Homo sapiens, UniProt Q9UGM1); assay: Agonist activity at human alpha9 nAChR expressed as xenopus laevis oocytes assessed as increase in receptor desensitization by measuring fold change in maximum response (Imax) measured after 120 secs by two-electrode voltage-clamp electrophysiology method relative to acetylcholine; format: cell-based; conditions: Oocyte, filed as agonist, time 120.0 sec
[10] = target: T1, Neuronal acetylcholine receptor; alpha3/beta4 (Homo sapiens); assay: as §1, with “human alpha3beta4” for “mouse muscle alpha1beta1epsilondelta”, “100” for “30”; format: cell-based; conditions: Oocyte
Oocyte [11] = assay: Agonist activity at mouse muscle alpha1beta1epsilondelta nAChR expressed in xenopus laevis oocytes at 30 uM measured after 120 secs by two-electrode voltage-clamp electrophysiology method relative to control; format: cell-based; conditions: time 120.0 sec
[12] = target: T4, Neuronal acetylcholine receptor; alpha9/alpha10 (Homo sapiens); assay: Agonist activity at human alpha9alpha10 nAChR expressed as xenopus laevis oocytes assessed as increase in receptor desensitization by measuring fold change in maximum response (Imax) measured after 120 secs by two-electrode voltage-clamp electrophysiology method relative to acetylcholine; format: cell-based; conditions: Oocyte, filed as agonist, time 120.0 sec
[13] = target: T5, Neuronal acetylcholine receptor subunit alpha-9; assay: Partial agonist activity at human alpha9 nAChR expressed as xenopus laevis oocytes assessed as increase in receptor desensitization by measuring fold change in maximum response (Imax) measured after 120 secs by two-electrode voltage-clamp electrophysiology method relative to acetylcholine; format: cell-based; conditions: Oocyte, filed as partial agonist, time 120.0 sec
[14] = human, caco-2, 2 h
Description: Apparent permeability across apical to basolateral side in human Caco-2 cells at 5 ug/ml measured after 2 hrs by UPLC-MS/MS analysis

[15] = Selectivity ratio for agonist activity at alpha7 nAChR (unknown origin) to agonist activity at alpha9 nAChR (unknown origin)
[16] = target: T2, Neuronal acetylcholine receptor subunit alpha-7; assay: Partial agonist activity at human alpha7 nAChR expressed as xenopus laevis oocytes assessed as increase in receptor desensitization by measuring fold change in maximum response (Imax) measured after 120 secs by two-electrode voltage-clamp electrophysiology method relative to acetylcholine; format: cell-based; conditions: Oocyte, filed as partial agonist, time 120.0 sec
THP-1 [17] = assay: Induction of IL-1beta release in LPS primed monocytic human THP-1 cells at 10 uM primed with LPS for 5 hrs followed by compound addition and further incubated for 40 mins by ELISA; format: functional, cell-based
THP-1 [18] = assay: Cytotoxicity against monocytic human THP-1 cells assessed as effect on lactate dehydrogenase activity in supernatant; format: toxicity, cell-based
[19] = target: Neuronal acetylcholine receptor; alpha9/alpha10 (Homo sapiens, UniProt Q9GZZ6+Q9UGM1); assay: Agonist activity at alpha9alpha10 nAChR (unknown origin); format: protein-complex assay
[20] = target: T5, Neuronal acetylcholine receptor subunit alpha-9; assay: Agonist activity at alpha9 nAChR (unknown origin)
[21] = target: T4, Neuronal acetylcholine receptor; alpha9/alpha10 (Homo sapiens); assay: Agonist activity at alpha9alpha10 nAChR (unknown origin) assessed as fold change in maximum response (Imax) relative to acetylcholine; format: protein-complex assay; conditions: filed as agonist
cells = conditions: Homo sapiens, THP-1
Description: Inhibition of ATP-mediated IL-1beta release in LPS primed BzATP induced monocytic human THP-1 cells primed with LPS for 5 hrs followed by BzATP and compound addition for 40 mins by ELISA

[22] = target: T2, Neuronal acetylcholine receptor subunit alpha-7; assay: Agonist activity at alpha7 nAChR (unknown origin)
PBMC [23] = assay: Inhibition of ATP-mediated IL-1beta release in LPS primed BzATP induced human PBMC cells at 100 fM primed with LPS for 3 hrs followed by BzATP and compound addition for 30 mins by ELISA; format: functional, cell-based
PBMC [24] = assay: Inhibition of ATP-mediated IL-1beta release in LPS primed BzATP induced human PBMC cells at 100 uM primed with LPS for 3 hrs followed by BzATP and compound addition for 30 mins by ELISA; format: functional, cell-based
[25] = Metabolic stability in pooled BALB/c mouse plasma assessed as half life at 1 uM measured after 0 to 120 mins by UPLC-MS/MS analysis; format: ADME, cell-free; conditions: time 0-120 min

T2 sequence (P36544 whole entry): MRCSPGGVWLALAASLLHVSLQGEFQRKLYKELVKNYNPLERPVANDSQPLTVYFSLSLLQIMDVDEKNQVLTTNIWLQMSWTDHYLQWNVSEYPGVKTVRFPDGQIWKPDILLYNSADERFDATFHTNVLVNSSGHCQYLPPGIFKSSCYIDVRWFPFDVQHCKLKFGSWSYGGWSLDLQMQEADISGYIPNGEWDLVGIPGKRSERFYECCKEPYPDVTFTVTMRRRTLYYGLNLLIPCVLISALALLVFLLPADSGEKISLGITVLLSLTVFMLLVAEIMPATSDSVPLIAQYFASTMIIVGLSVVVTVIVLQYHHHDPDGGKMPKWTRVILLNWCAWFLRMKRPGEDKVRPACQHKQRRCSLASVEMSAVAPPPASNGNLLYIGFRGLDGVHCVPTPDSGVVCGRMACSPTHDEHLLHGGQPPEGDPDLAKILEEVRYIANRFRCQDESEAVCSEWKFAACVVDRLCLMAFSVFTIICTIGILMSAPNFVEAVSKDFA
T5 sequence (Q9UGM1 whole entry): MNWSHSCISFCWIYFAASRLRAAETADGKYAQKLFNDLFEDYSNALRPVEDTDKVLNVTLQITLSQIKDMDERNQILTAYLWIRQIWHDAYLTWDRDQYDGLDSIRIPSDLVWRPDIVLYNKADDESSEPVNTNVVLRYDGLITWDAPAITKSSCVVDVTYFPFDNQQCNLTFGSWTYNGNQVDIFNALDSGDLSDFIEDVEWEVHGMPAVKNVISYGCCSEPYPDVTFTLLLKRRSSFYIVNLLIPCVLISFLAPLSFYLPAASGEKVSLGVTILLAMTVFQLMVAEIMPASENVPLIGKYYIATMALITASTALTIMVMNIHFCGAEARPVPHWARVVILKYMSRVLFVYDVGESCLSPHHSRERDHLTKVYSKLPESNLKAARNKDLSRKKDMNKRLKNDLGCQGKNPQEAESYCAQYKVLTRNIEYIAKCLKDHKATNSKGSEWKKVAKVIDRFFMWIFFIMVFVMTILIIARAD
Sequence of Neuronal acetylcholine receptor; alpha9/alpha10 (Q9UGM1 whole entry): as above
Sequence of Neuronal acetylcholine receptor; alpha9/alpha10 (Q9GZZ6 whole entry): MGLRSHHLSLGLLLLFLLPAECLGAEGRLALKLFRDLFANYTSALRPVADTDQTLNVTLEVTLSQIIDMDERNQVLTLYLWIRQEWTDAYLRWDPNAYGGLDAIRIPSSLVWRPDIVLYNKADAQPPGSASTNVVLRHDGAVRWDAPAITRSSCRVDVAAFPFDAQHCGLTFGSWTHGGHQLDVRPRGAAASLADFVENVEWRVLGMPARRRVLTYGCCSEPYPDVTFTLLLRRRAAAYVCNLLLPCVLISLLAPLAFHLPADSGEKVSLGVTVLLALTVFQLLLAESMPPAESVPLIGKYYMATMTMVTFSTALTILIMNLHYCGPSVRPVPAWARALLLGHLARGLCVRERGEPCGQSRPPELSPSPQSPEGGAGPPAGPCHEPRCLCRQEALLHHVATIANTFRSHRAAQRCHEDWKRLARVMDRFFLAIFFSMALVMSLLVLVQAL

Row | Compound | Activity [1] | fold change (FC) [2] | Activity [3] | fold change (FC) [4] | fold change (FC) (Oocyte [6]) | fold change (FC) [7] | fold change (FC) [9] | fold change (FC) [10] | Activity (Oocyte [11]) | fold change (FC) [12] | other results
1 | CC[N+]1(CC)CCN(c2ccc(NC(=O)c3cccc(C)n3)cc2)CC1 | < 1% | 31.8 | < 1% | 0.14 | 0.38 | 1.07 | 1.24 | 0.415 | < 1% | – | Ratio [5]: 227; fold change (FC) [8]: 0.53
2 | Cc1cccc(NC(=O)c2ccc(N3CC[N+](C)(C)CC3)cc2)n1 | < 1% | 0.16 | < 1% | 0.57 | 0.709 | 0.912 | – | 0.838 | < 1% | 0.89 | fold change (FC) [13]: 0.51
3 | CC[N+]1(CC)CCN(c2ccc(C(=O)Nc3ccccn3)cc2)CC1 | < 1% | 0.12 | < 1% | 0.46 | 0.506 | 0.697 | 1.18 | 0.789 | < 1% | 0.94 | –
4 | CC(C)NCC(O)COc1cccc2ccccc12 (stereo unspecified) [PROPRANOLOL] | – | – | – | – | – | – | – | – | – | – | Papp [14]: 20 10^-6 cm/s
5 | CC[N+]1(CC)CCN(c2ccc(C(N)=O)cc2)CC1 | – | 0.18 | – | – | – | – | 0.8 | – | – | 1.19 | Selectivity ratio [15]: 66; fold change (FC) [16]: 0.34
6 | CC(=O)OCC[N+](C)(C)C [ACETYLCHOLINE] | – | – | – | – | – | – | – | – | – | – | Activity (THP-1 [17]): inactive; Activity (THP-1 [18]): Non-Toxic
7 | CC[N+]1(CC)CCN(c2ccc(C#N)cc2)CC1 | – | – | – | – | – | – | – | – | – | – | pEC50 [19]: 5.59; pEC50 [20]: 6.43; fold change (FC) [21]: 0.94
8 | CC[N+]1(CC)CCN(c2ccc(C(=O)Nc3cccc(C)c3)cc2)CC1 | < 1% | 0.17 | < 1% | – | 0.555 | 0.807 | 1.25 | 1.04 | < 1% | 1.12 | fold change (FC) [16]: 0.6
9 | CC[N+]1(CC)CCN(c2ccc(-n3cccn3)cc2)CC1 | < 1% | 0.17 | < 1% | – | 0.59 | 0.913 | 1.01 | 0.736 | < 1% | – | fold change (FC) [16]: 0.088; fold change (FC) [8]: 0.59
10 | CC[N+]1(CC)CCN(c2ccc(C(=O)Nc3cccc(C)n3)cc2)CC1.[I-] | – | – | – | – | – | – | – | – | – | – | pEC50 [19]: 6.01; pIC50 (cells): 4.85; pEC50 [22]: 5.19; Activity (THP-1 [17]): inactive; inhibition (PBMC [23]): Active; pEC50 [20]: 6.18; inhibition (PBMC [24]): inactive; Activity (THP-1 [18]): Non-Toxic
11 | CC[N+]1(CC)CCN(c2ccc(-c3ncco3)cc2)CC1 | < 1% | 0.05 | < 1% | – | 0.353 | 0.823 | 1.29 | 0.507 | < 1% | 0.83 | fold change (FC) [16]: 0.12
12 | CCCNC(=O)c1ccc(N2CC[N+](CC)(CC)CC2)cc1 | < 1% | 0.19 | < 1% | 0.38 | 0.709 | 0.946 | 1.13 | 0.65 | < 1% | – | fold change (FC) [8]: 0.79
13 | CCN(CC)CCOC(=O)c1ccc(N)cc1 [PROCAINE] | – | – | – | – | – | – | – | – | – | – | t1/2 [25]: < 5 min
14 | C[C@H]1O[C@@H](O[C@H]2[C@@H](O)C[C@H](O[C@H]3[C@@H](O)C[C@H](O[C@H]4CC[C@@]5(C)[C@H](CC[C@@H]6[C@@H]5C[C@@H](O)[C@]5(C)[C@@H](C7=CC(=O)OC7)CC[C@]65O)C4)O[C@@H]3C)O[C@@H]2C)C[C@H](O)[C@@H]1O [DIGOXIN] | – | – | – | – | – | – | – | – | – | – | Papp [14]: 5.4 10^-6 cm/s
15 | CC[N+]1(CC)CCN(c2ccc(C(=O)N3CCCC3)cc2)CC1 | < 1% | 0.01 | < 1% | 0.06 | 0.541 | 0.919 | – | 0.849 | < 1% | 0.56 | fold change (FC) [13]: 0.69
16 | CC[N+]1(CC)CCN(c2ccc(-n3cccc3)cc2)CC1 | < 1% | 0.08 | < 1% | 0.041 | 0.691 | 0.709 | – | 0.387 | < 1% | 0.17 | fold change (FC) [13]: 0.27
17 | CC[N+]1(C)CCN(c2ccc(NC(C)=O)cc2)CC1 | < 1% | 0.15 | < 1% | – | 0.409 | 1.19 | 0.75 | 0.798 | < 1% | – | fold change (FC) [8]: 3.3
